Experimental findings from PubChem BioAssay AID1259407 (Chemical Carcinogenesis Research Information System (CCRIS), 2018) are described below.

The data set concerns CCRIS mutagenicity, Ames/micronucleus/aberration tests. In words: CCRIS mutagenicity studies.
[1] abbreviates: Test System: AMES SALMONELLA TYPHIMURIUM, Strain/Indicator: TA97, Metabolic Activation: NONE, Method: STANDARD PLATE.
[2] abbreviates: Test System: AMES SALMONELLA TYPHIMURIUM, Strain/Indicator: TA98, Metabolic Activation: NONE, Method: STANDARD PLATE.
[3] abbreviates: Test System: AMES SALMONELLA TYPHIMURIUM, Strain/Indicator: TA100, Metabolic Activation: NONE, Method: STANDARD PLATE.
The mark [4] stands for this setting: Test System: AMES SALMONELLA TYPHIMURIUM, Strain/Indicator: TA102, Metabolic Activation: NONE, Method: STANDARD PLATE.
Setting [5] is: Test System: AMES SALMONELLA TYPHIMURIUM, Strain/Indicator: TA100, Metabolic Activation: NONE, Method: PREINCUBATION
The mark [6] stands for this setting: Test System: AMES SALMONELLA TYPHIMURIUM, Strain/Indicator: TA100, Metabolic Activation: RAT, LIVER, S-9, AROCLOR 1254, Method: STANDARD PLATE.

Activity calls are given as the source filed them. No rule for the calls is given here.

For the molecule `CCC(C)(C)c1cc(-n2nc3ccccc3n2)c(O)c(C(C)(C)CC)c1`, the mutagenic call under setting [1] was “inactive; negative”; the mutagenic call (Test System: AMES SALMONELLA TYPHIMURIUM, Strain/Indicator: TA97, Metabolic Activation: S-9, Method: STANDARD PLATE) was “inactive; negative”; the mutagenic call under setting [2] is “inactive; negative”; the mutagenic call (Test System: AMES SALMONELLA TYPHIMURIUM, Strain/Indicator: TA98, Metabolic Activation: S-9, Method: STANDARD PLATE) was “inactive; negative”; the mutagenic call under setting [3] is “inactive; negative”; the mutagenic call (Test System: AMES SALMONELLA TYPHIMURIUM, Strain/Indicator: TA100, Metabolic Activation: S-9, Method: STANDARD PLATE) was “inactive; negative”. For the same molecule, the mutagenic call runs as follows: under setting [4], “inactive; negative”; (Test System: AMES SALMONELLA TYPHIMURIUM, Strain/Indicator: TA102, Metabolic Activation: S-9, Method: STANDARD PLATE) “inactive; negative”; (Test System: E.COLI, Strain/Indicator: WP2 (PKM101), Metabolic Activation: NONE, Method: STANDARD PLATE) “inactive; negative”; (Test System: E.COLI, Strain/Indicator: WP2 (PKM101), Metabolic Activation: S-9, Method: STANDARD PLATE) “inactive; negative”.

Take `CC(C)CN(N=O)C(N)=O`: the mutagenic call (Test System: E. COLI B, Strain/Indicator: H/R30R, Metabolic Activation: NONE) is “active; positive” and the mutagenic call (Test System: E. COLI B, Strain/Indicator: HS30R, Metabolic Activation: NONE) is “active; positive”.

For `CCCC(=O)Nc1ncnc2c1ncn2[C@@H]1O[C@@H]2COP(=O)(O)O[C@H]2[C@H]1OC(=O)CCC`, the mutagenic call is “inactive; negative” (Test System: AMES SALMONELLA TYPHIMURIUM, Strain/Indicator: TA98, Metabolic Activation: NONE, Method: PREINCUBATION); “inactive; negative” (Test System: AMES SALMONELLA TYPHIMURIUM, Strain/Indicator: TA98, Metabolic Activation: RAT, LIVER, S-9, KC-500, Method: PREINCUBATION); “inactive; negative” under setting [5]; “inactive; negative” (Test System: AMES SALMONELLA TYPHIMURIUM, Strain/Indicator: TA100, Metabolic Activation: RAT, LIVER, S-9, KC-500, Method: PREINCUBATION); “inactive; negative” (Test System: AMES SALMONELLA TYPHIMURIUM, Strain/Indicator: TA1535, Metabolic Activation: NONE, Method: PREINCUBATION); “inactive; negative” (Test System: AMES SALMONELLA TYPHIMURIUM, Strain/Indicator: TA1535, Metabolic Activation: RAT, LIVER, S-9, KC-500, Method: PREINCUBATION). In addition, the mutagenic call by setting is: (Test System: AMES SALMONELLA TYPHIMURIUM, Strain/Indicator: TA1537, Metabolic Activation: NONE, Method: PREINCUBATION) “inactive; negative”; (Test System: AMES SALMONELLA TYPHIMURIUM, Strain/Indicator: TA1537, Metabolic Activation: RAT, LIVER, S-9, KC-500, Method: PREINCUBATION) “inactive; negative”; (Test System: AMES SALMONELLA TYPHIMURIUM, Strain/Indicator: TA1538, Metabolic Activation: NONE, Method: PREINCUBATION) “inactive; negative”; (Test System: AMES SALMONELLA TYPHIMURIUM, Strain/Indicator: TA1538, Metabolic Activation: RAT, LIVER, S-9, KC-500, Method: PREINCUBATION) “inactive; negative”; (Test System: E. COLI, Strain/Indicator: WP2 UVRA, Metabolic Activation: NONE, Method: PREINCUBATION) “inactive; negative”; (Test System: E. COLI, Strain/Indicator: WP2 UVRA, Metabolic Activation: RAT, LIVER, S-9, KC-500, Method: PREINCUBATION) “inactive; negative”.

For the molecule `CCNc1cc2oc(=O)cc(C)c2cc1C`, the mutagenic call by setting is: (Test System: AMES SALMONELLA TYPHIMURIUM, Strain/Indicator: TA1538, Metabolic Activation: NONE, Method: STANDARD PLATE) “inactive; negative”; (Test System: AMES SALMONELLA TYPHIMURIUM, Strain/Indicator: TA1538, Metabolic Activation: RAT, LIVER, S-9, AROCLOR 1254, Method: STANDARD PLATE) “inactive; negative”.

Consider `N#Cc1c(Cl)cccc1Cl`, for which the mutagenic call reads like this: under setting [1], “inactive; negative”; (Test System: AMES SALMONELLA TYPHIMURIUM, Strain/Indicator: TA97, Metabolic Activation: RAT, LIVER, S-9, AROCLOR 1254, Method: STANDARD PLATE) “inactive; negative”; under setting [2], “inactive; negative”; (Test System: AMES SALMONELLA TYPHIMURIUM, Strain/Indicator: TA98, Metabolic Activation: RAT, LIVER, S-9, AROCLOR 1254, Method: STANDARD PLATE) “inactive; negative”; under setting [3], “inactive; negative”; under setting [6], “inactive; negative”. Also, the mutagenic call is, setting by setting: under setting [4], “inactive; negative”; (Test System: AMES SALMONELLA TYPHIMURIUM, Strain/Indicator: TA102, Metabolic Activation: RAT, LIVER, S-9, AROCLOR 1254, Method: STANDARD PLATE) “inactive; negative”.

Consider `CCOC(=O)CNC(=O)CBr`, for which the mutagenic call (Test System: AMES SALMONELLA TYPHIMURIUM, Strain/Indicator: TA100, Metabolic Activation: MOUSE, LIVER, S-9, AROCLOR 1254, Method: STANDARD PLATE) was “inactive; negative” and the mutagenic call under setting [3] was “inactive; negative”.

With `O=P(OCC(Br)CBr)(OCC(Br)CBr)OCC(Br)CBr` (centres undefined), the mutagenic call reads like this: under setting [5], “inactive; negative”; under setting [3], “inactive; negative”; (Test System: AMES SALMONELLA TYPHIMURIUM, Strain/Indicator: TA100, Metabolic Activation: RAT LIVER S-9, PHENOBARBITAL, Method: PREINCUBATION) “active; positive”; (Test System: AMES SALMONELLA TYPHIMURIUM, Strain/Indicator: TA100, Metabolic Activation: RAT, LIVER, HEPATOCYTES, PHENOBARBITAL, Method: PREINCUBATION) “active; positive”; (Test System: AMES SALMONELLA TYPHIMURIUM, Strain/Indicator: TA100, Metabolic Activation: RAT, LIVER, HEPATOCYTES, Method: PREINCUBATION) “active; positive”; (Test System: AMES SALMONELLA TYPHIMURIUM, Strain/Indicator: TA100, Metabolic Activation: RAT, LIVER, MICROSOMES, AROCLOR 1254, Method: STANDARD PLATE) “active; positive”. Moreover, the mutagenic call by setting is: (Test System: AMES SALMONELLA TYPHIMURIUM, Strain/Indicator: TA100, Metabolic Activation: RAT, LIVER, MICROSOMES, PHENOBARBITAL, Method: PREINCUBATION) “active; positive”; (Test System: AMES SALMONELLA TYPHIMURIUM, Strain/Indicator: TA100, Metabolic Activation: RAT, LIVER, MICROSOMES, Method: PREINCUBATION) “active; positive”; under setting [6], “active; positive”; (Test System: AMES SALMONELLA TYPHIMURIUM, Strain/Indicator: TA104, Metabolic Activation: RAT LIVER S-9, PHENOBARBITAL, Method: PREINCUBATION) “active; positive”; (Test System: AMES SALMONELLA TYPHIMURIUM, Strain/Indicator: TA1535, Metabolic Activation: RAT, LIVER, S-9, AROCLOR 1254, Method: STANDARD PLATE) “active; positive”; (Test System: CHINESE HAMSTER V-79, Strain/Indicator: V-79/6-THIOGUANINE, Metabolic Activation: RAT, LIVER, MICROSOMES, PHENOBARBITAL) “active; positive”. For the same molecule, the mutagenic call reads like this: (Test System: E. COLI, Strain/Indicator: WP2 UVRA, Metabolic Activation: MOUSE, LIVER, S-9, Method: STANDARD PLATE) “inactive; negative”; (Test System: E. COLI, Strain/Indicator: WP2 UVRA, Metabolic Activation: NONE, Method: STANDARD PLATE) “inactive; negative”; (Test System: E. COLI, Strain/Indicator: WP2 UVRA, Metabolic Activation: RAT, LIVER, S-9, Method: STANDARD PLATE) “inactive; negative”; (Test System: UDS RAT HEPATOCYTES, Strain/Indicator: THY INCORP, Metabolic Activation: NONE) “active; positive”; (Test System: UDS RODENT HEPATOCYTES, Strain/Indicator: THY INCORP (NON-S-PHASE), Metabolic Activation: RAT, LIVER, HEPATOCYTES, PHENOBARBITAL, Method: LIQUID SCINTILLATION COUNTING) “active; positive”; (Test System: UDS RODENT HEPATOCYTES, Strain/Indicator: THY INCORP (NON-S-PHASE), Metabolic Activation: RAT, LIVER, HEPATOCYTES, Method: LIQUID SCINTILLATION COUNTING) “active; positive”.
